Experimental data: patent publication US7566737B2 (Genfit, priority 2002, dated 2009)

What was measured:
[1] = test system: hApoE2 Knock-in transgenic mice; assay: Effects on triglycerides and cholesterol metabolism in vivo; set-up: species or system mouse
How it was run: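 hApoE2 knock-in mice (n=6/group, matched for body weight and plasma lipids) dosed once daily by intragastric gavage in carboxymethylcellulose for 7 or 8 days at indicated doses. Terminal blood on EDTA; total cholesterol and triglycerides measured colorimetrically.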

[2] = test system: Human normal primary fibroblasts; assay: Antioxidant properties on cell cultures (carboxy-H2DCFDA fluorescence, AAPH stress), fibroblasts; assay type: cell-based; conditions: 25 μM for 24 h, AAPH 750 μM
How it was run: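 Cells were pretreated 24 h with compound at 25 μM, loaded 30 min at 37 °C with 25 μM carboxy-H2DCFDA, then stressed 30 min with 750 μM AAPH in phenol-red- and serum-free medium. ROS read as fluorescence ([…]); activity expressed as reduction in fluorescence signal.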

[3] = test system: Human THP-1 monocytes differentiated in macrophages; assay: Anti-inflammatory properties: cytokine secretion by LPS-stimulated macrophages; assay type: cell-based; conditions: pre-treated 24 hours, LPS 6 hours, vs non-treated cells
Protocol: TNF-α (tumor necrosis factor alpha) and IL-6 (interleukin-6) are two important markers of the inflammatory response to stress. The anti-inflammatory property of the compound 29 was evaluated as follows:
Human THP-1 monocytes were differentiated in macrophages by a 72 h incubation with 30 ng/ml of PMA (Phorbol Myristate Acetate). Differentiated macrophages were then treated with the inventive compound 29 at different concentrations during 24 h in culture medium without serum. Stimulation with LPS 1 μg/ml was finally performed during 6 hours (LPS bacterial endotoxin (Escherichia coli 0111 :B4) (Sigma, France) was reconstituted in distilled water).
TNF-α and IL-6 secretion were quantified in the culture medium of LPS-stimulated cells with TNF-α and IL6 ELISA kits (Immunotech, France).

[4] = 200, 50, 12.5 and 3.125 mg/kg/day for 8 days

Row | SMILES | plasma cholesterol ([1]; 50 mg/kg/day for 7 or 8 days, FIGS. 4-13, 4-15, 4-17, 4-19) | plasma triglycerides ([1]; 50 mg/kg/day for 7 or 8 days, FIGS. 4-14, 4-16, 4-18, 4-20) | cholesterol in lipoparticle subfraction (exclusion chromatography) [1, 4] | plasma cholesterol level [1, 4] | plasma triglycerides level [1, 4] | triglycerides in lipoparticle subfraction (exclusion chromatography) [1, 4] | antioxidant properties on cell cultures (in words) [2] | IL-6 secretion ([3]; 0.1, 1 and 10 μM) | TNF-α secretion ([3]; 1 and 10 μM) | cholesterol in lipoparticle subfraction (exclusion chromatography) ([1]; 50 mg/kg/day for 8 days) | plasma cholesterol ([1]; 50 mg/kg/day for 8 days) | plasma triglycerides ([1]; 50 mg/kg/day for 8 days) | triglycerides in lipoparticle subfraction (exclusion chromatography) ([1]; 50 mg/kg/day for 8 days)
1 | CSc1ccc(C(=O)/C=C/c2cc(C)c(OC(C)(C)C(=O)O)c(C)c2)cc1 [Compound 29, 1-[4-methylthiophenyl]-3-[3,5-dimethyl-4-carboxydimethylmethyloxyphenyl]prop-2-en-1-one] | decrease | decrease | decrease | dose-dependent decrease | dose-dependent decrease | decrease | antioxidant properties | decrease | decrease | – | – | – | –
2 | Cc1cc(/C=C/C(=O)c2ccc(Br)cc2)cc(C)c1OC(C)(C)C(=O)O [Compound 41, 1-[4-bromophenyl]-3-[3,5-dimethyl-4-carboxydimethylmethyloxyphenyl]prop-2-en-1-one] | – | – | – | – | – | – | antioxidant properties | – | – | decrease | decrease | decrease | decrease
